Laboratory results as given in patent US20240166651A1, “HETEROCYCLIC DERIVATIVES AS JANUS KINASE INHIBITORS” (CHIESI FARMACEUTICI S.P.A., priority 2021, published 2024).

Key:
JAK1 kinase = JAK1 kinase (Homo sapiens (Human), UniProt P23458); test: Biochemical Potency JAK1 (TR-FRET LANCE Ultra kinase assay); details: ATP corresponding to Km
Excerpt: The objective of this study was to assess the activity of novel JAK inhibitors measuring the capability of compounds to inhibit JAK1 kinase activity in a biochemical time-resolved fluorescence resonance energy transfer (TR-FRET) LANCE assay. In
LANCE Ultra kinase assay in the presence of JAK1 kinase and ATP (corresponding to Km), the ULight peptide substrate (LANCE Ulight-JAK-1 (Tyr1023) Peptide, Perkin Elmer, TRF0121) was phosphorylated. It was then captured by a Eu-anti-phospho-substrate antibody (LANCE Eu-W1024 Anti-phosphotyrosine (PT66), Perkin Elmer, AD0069), which brought the Eu-chelate donor and ULight acceptor dyes into close proximity. Upon excitation at 320 nm, the Eu-chelate transfers its energy to the ULight dye, resulting in a fluorescent light emission at 665 nm. Inhibitors were tested at 11 consecutive 5-fold dilutions starting from 30 μM (30 μM—3 pM) in duplicate. Calculation of IC50 data, curves and QC analysis were made using Excel tools and GraphPadPrism software. QC criteria parameters: Z′≥0.5, Hill Slope range 0.5 to 5, S:B>2.

[1] = test system: IL-2 induced phosphorylation of STAT5 (JAK1/JAK3 activity) in human PBMCs; test: Cell Based assay PBMC (IL-2 stimulated pSTAT5); details: 0.5 h, rh IL-2, 30 min incubation, pSTAT5 ELISA, data displayed as pIC50
Description: In addition to enzymatic potency, the effects of the inhibitors against JAK1/JAK3 activity in a cellular assay was characterized against IL-2 induced phosphorylation of STATS level in human peripheral blood mononuclear cells (PBMCs).
PBMC have been isolated from human healthy volunteers. Cells were seeded in wells and treated with compounds and rh IL-2. After 30 min incubation cells were lysed and pSTAT5 determined by PathScan phospho-stats (Tyr694) ELISA (Cell signaling). Inhibitors were tested at 11 consecutive 5-fold dilutions starting from 30 μM (30 μM—3 pM) in duplicate. Calculation of IC50 data, curves and QC analysis were made using
Excel tools and GraphPadPrism software. QC criteria parameters: Z′≥0.35, Hill Slope range 0.5 to 5, S:B >2.

JAK1 kinase, sequence (P23458 whole entry): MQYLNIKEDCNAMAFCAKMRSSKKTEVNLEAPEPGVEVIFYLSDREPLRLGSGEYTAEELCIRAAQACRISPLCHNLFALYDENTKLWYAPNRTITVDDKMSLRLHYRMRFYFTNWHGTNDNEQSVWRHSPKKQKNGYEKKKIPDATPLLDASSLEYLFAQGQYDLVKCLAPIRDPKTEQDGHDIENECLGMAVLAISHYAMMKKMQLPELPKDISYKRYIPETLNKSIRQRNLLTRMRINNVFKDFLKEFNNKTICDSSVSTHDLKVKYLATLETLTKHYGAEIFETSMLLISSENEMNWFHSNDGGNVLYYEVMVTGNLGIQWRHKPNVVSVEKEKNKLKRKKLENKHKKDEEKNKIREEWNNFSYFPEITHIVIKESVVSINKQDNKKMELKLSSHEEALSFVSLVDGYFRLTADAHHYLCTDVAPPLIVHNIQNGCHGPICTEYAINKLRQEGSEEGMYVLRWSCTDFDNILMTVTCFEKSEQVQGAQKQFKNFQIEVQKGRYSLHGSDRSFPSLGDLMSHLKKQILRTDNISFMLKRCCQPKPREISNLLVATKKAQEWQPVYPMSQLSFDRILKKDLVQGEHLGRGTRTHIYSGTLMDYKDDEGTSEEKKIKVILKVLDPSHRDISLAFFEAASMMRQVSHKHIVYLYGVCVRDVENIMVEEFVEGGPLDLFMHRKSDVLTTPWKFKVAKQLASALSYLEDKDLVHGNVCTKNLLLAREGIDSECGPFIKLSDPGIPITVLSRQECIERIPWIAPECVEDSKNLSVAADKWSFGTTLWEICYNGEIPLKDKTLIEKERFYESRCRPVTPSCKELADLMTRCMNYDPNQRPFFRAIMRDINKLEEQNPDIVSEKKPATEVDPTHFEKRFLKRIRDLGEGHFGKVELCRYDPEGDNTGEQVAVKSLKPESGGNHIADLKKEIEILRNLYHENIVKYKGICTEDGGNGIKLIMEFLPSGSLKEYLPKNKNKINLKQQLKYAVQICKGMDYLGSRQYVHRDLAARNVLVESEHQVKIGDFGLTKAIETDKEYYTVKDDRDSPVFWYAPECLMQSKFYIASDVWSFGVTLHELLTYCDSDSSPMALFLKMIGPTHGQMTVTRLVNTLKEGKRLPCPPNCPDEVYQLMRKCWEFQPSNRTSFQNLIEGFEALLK

SMILES	Biochemical Potency JAK 1 (pIC50) (JAK1 kinase)	IC50 [1]
CN(c1ncnc2[nH]ccc12)C1CCN(c2ccc(C#N)nc2)C1 (stereo not drawn) [Example 2, 5-(3-(methyl(7H-pyrrolo[2,3-d]pyrimidin-4-yl)amino)pyrrolidin-1-yl)picolinonitrile]	7.9	251 nM
CN(c1ncnc2[nH]ccc12)[C@@H]1CCN(c2ccc(C(=O)Nc3nccs3)cn2)C1 [Example 3, (R)-6-(3-(methyl(7H-pyrrolo[2,3-d]pyrimidin-4-yl)amino)pyrrolidin-1-yl)-N-(thiazol-2-yl)nicotinamide]	7.7	501 nM
CN(c1ncnc2[nH]ccc12)[C@@H]1CCN(c2cc(F)ccc2C#N)C1 [Example 9, (R)-4-fluoro-2-(3-(methyl(7H-pyrrolo[2,3-d]pyrimidin-4-yl)amino)pyrrolidin-1-yl)benzonitrile]	7.6	398 nM
COC(=O)C(c1ccc(Cl)cc1F)N1CCC(N(C)c2ncnc3[nH]ccc23)C1 (stereo not drawn) [Example 5, methyl 2-(4-chloro-2-fluorophenyl)-2-(3-(methyl(7H-pyrrolo[2,3-d]pyrimidin-4-yl)amino)pyrrolidin-1-yl)acetate]	7.6	–
CN(c1ncnc2[nH]ccc12)[C@@H]1CCN(c2cnc(C#N)nc2)C1 [Example 10, (R)-5-(3-(methyl(7H-pyrrolo[2,3-d]pyrimidin-4-yl)amino)pyrrolidin-1-yl)pyrimidine-2-carbonitrile]	7.9	200 nM
N#Cc1ccc(N2CCC(Nc3c(C(=O)O)cnc4ccsc34)C2)cc1F (stereo not drawn) [Example 8, 7-((1-(4-cyano-3-fluorophenyl)pyrrolidin-3-yl)amino)thieno[3,2-b]pyridine-6-carboxylic acid]	5.3	31600 nM
CCOC(=O)c1cnc2ccsc2c1NC1CCN(c2ccc(C#N)c(F)c2)C1 (stereo not drawn) [Example 7, ethyl 7-((1-(4-cyano-3-fluorophenyl)pyrrolidin-3-yl)amino)thieno[3,2-b]pyridine-6-carboxylate]	6	2510 nM
CN(c1ncnc2[nH]ccc12)C1CCN(C(C(=O)O)c2ccc(Cl)cc2F)C1 (stereo not drawn) [Example 6, 2-(4-chloro-2-fluorophenyl)-2-(3-(methyl(7H-pyrrolo[2,3-d]pyrimidin-4-yl)amino)pyrrolidin-1-yl)acetic acid]	5.3	–
CN(c1ncnc2[nH]ccc12)[C@@H]1CCN(c2ccc(C#N)c(F)c2)C1 [Example 1, (R)-2-fluoro-4-(3-(methyl(7H-pyrrolo[2,3-d]pyrimidin-4-yl)amino)pyrrolidin-1-yl)benzonitrile]	8.6	50.1 nM
N#Cc1ccc(N2CCC(Nc3c(C(N)=O)cnc4ccsc34)C2)cc1F (stereo not drawn) [Example 4, 7-((1-(4-cyano-3-fluorophenyl)pyrrolidin-3-yl)amino)thieno[3,2-b]pyridine-6-carboxamide]	7	3160 nM
